In patent US20250009895A1, “DRUG LOADING MONOMOLECULAR NANO POLYMER, PRODRUG, MICELLE, DRUG DELIVERY SYSTEM, PREPARATION METHOD, AND USE” (priority 2021, published 2025):

Test system: A549 lung cancer subcutaneous xenograft model
Assay: Tumor drug accumulation test, Pt in tumor by ICP-MS
Assay type: in vivo, Bal b/c nude mice
Conditions: tail vein injection, CPT 5 mg/kg and Pt 1.8 mg/kg
Protocol: The tumor model used in this example was A549 lung cancer subcutaneous xenograft model. Female Bal b/c nude mice at the age of 8 weeks were administrated with the drug formulation via tail vein injection at a dose of 200 microliters with CPT at 5 mg/kg and Pt at 1.8 mg/kg. Equivalent amounts of cisplatin and the self-assembled dual-drug nano-formulation cisplatin@PEG-PGlu(ss-CPT) served as controls. At different time points after the intravenous injection, the mice were dissected, and the tumor tissues were collected and fully dissolved in concentrated nitric acid. The Pt contents in the tumor tissues were measured using ICP-MS.

In the case of `N.N.[Cl][Pt][Cl]` [cisplatin], the “drug (Pt) concentration / enrichment in the tumor” value is reported as “relatively low”.
